Test results: PubChem BioAssay AID330 (DTP/NCI, 2004)
Several values for one entry are separate records, joined by “and”; a condition that tells them apart may be missing. Equal entries are not always repeated. Inconclusive results and toxic doses are left out.

Tested on: P388 leukemia ip, CD2F1 mice, survival T/C
Experiment: NCI In Vivo Anticancer Drug Screen. Data for tumor model P388 Leukemia (intraperitoneal) in CD2F1 (CDF1) mice
Settings: endpoint: median survival time, higher = longer survival
Procedure, shortened: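 Mice carrying the transplanted tumor received test compound or vehicle. Survival was recorded in each group, and the value is the treated-group measurement divided by that of the vehicle-treated control group.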

[1] = dose: 50.0 mg/kg/injection, schedule: Q01DX001 (ip), vehicle: Klucel (hydroxypropylcellulose) (HPC)
[2] = dose: 100.0 mg/kg/injection, schedule: Q01DX001 (ip), vehicle: Klucel (hydroxypropylcellulose) (HPC)
[3] = dose: 50.0 mg/kg/injection, schedule: Q01DX009 (ip), vehicle: saline with Tween-80
[4] = dose: 100.0 mg/kg/injection, schedule: Q01DX009 (ip), vehicle: saline with Tween-80
[5] = dose: 200.0 mg/kg/injection, schedule: Q01DX009 (ip), vehicle: saline with Tween-80
[6] = dose: 100.0 mg/kg/injection, schedule: Q04DX003 (ip), vehicle: Klucel (hydroxypropylcellulose) (HPC)
[7] = dose: 200.0 mg/kg/injection, schedule: Q04DX003 (ip), vehicle: Klucel (hydroxypropylcellulose) (HPC)
[8] = dose: 400.0 mg/kg/injection, schedule: Q04DX003 (ip), vehicle: Klucel (hydroxypropylcellulose) (HPC)
[9] = dose: 50.0 mg/kg/injection, schedule: Q01DX005 (ip), vehicle: saline
[10] = dose: 100.0 mg/kg/injection, schedule: Q01DX005 (ip), vehicle: saline
[11] = dose: 100.0 mg/kg/injection, schedule: Q04DX003 (ip), vehicle: saline
[12] = dose: 200.0 mg/kg/injection, schedule: Q04DX003 (ip), vehicle: saline
[13] = dose: 400.0 mg/kg/injection, schedule: Q04DX003 (ip), vehicle: saline
[14] = dose: 50.0 mg/kg/injection, schedule: Q01DX005 (ip), vehicle: Klucel (hydroxypropylcellulose) (HPC)
[15] = dose: 100.0 mg/kg/injection, schedule: Q01DX005 (ip), vehicle: Klucel (hydroxypropylcellulose) (HPC)
[16] = dose: 50.0 mg/kg/injection, schedule: Q01DX005 (ip), vehicle: saline with Tween-80
[17] = dose: 100.0 mg/kg/injection, schedule: Q01DX005 (ip), vehicle: saline with Tween-80
[18] = dose: 200.0 mg/kg/injection, schedule: Q01DX005 (ip), vehicle: saline with Tween-80

For `Cc1ccc(S(=O)(=O)N2CC3CC(/C=C/c4ccnc5ccccc45)CC(C3)C2)cc1` (configuration not stated), the T/C (dose: 25.0 mg/kg/injection, schedule: Q01DX001 (ip), vehicle: suspension in saline) was 96 % of control, the T/C (dose: 50.0 mg/kg/injection, schedule: Q01DX001 (ip), vehicle: suspension in saline) was 102 % of control and the T/C (dose: 100.0 mg/kg/injection, schedule: Q01DX001 (ip), vehicle: suspension in saline) was 95 % of control.

`Nc1[nH]c(=S)[nH]c(=O)c1N=Cc1ccc(Cl)c(Cl)c1` was tested, and the T/C [1] was 100 % of control, the T/C [2] was 100 % of control and 102 % of control and 114 % of control and the T/C (dose: 200.0 mg/kg/injection, schedule: Q01DX001 (ip), vehicle: Klucel (hydroxypropylcellulose) (HPC)) was 103 % of control (2×) and 116 % of control. The T/C (dose: 400.0 mg/kg/injection, schedule: Q01DX001 (ip), vehicle: Klucel (hydroxypropylcellulose) (HPC)) was 107 % of control and 110 % of control.

With `CC(O)CC1(c2ccccc2)C(=O)NC(=O)NC1=O` (configuration not stated) the T/C [3] was 98 % of control, the T/C [4] was 98 % of control and the T/C [5] was 95 % of control.

`COC(=O)C1c2c(C)cc3n2C(C=C(C)C3)C1C(=O)OC` (configuration not stated) was tested, and the T/C [6] was 100 % of control, the T/C [7] was 105 % of control and the T/C [8] was 95 % of control.

`O=COCC1(c2ccncc2)OCCO1` was tested, and the T/C [9] was 108 % of control, the T/C [10] was 107 % of control and the T/C (dose: 200.0 mg/kg/injection, schedule: Q01DX005 (ip), vehicle: saline) was 99 % of control.

For `CNC(=O)OCc1ccc(NCCN(C)C)c2c(=O)c3cc(OC(=O)NC)ccc3oc12`, the T/C (dose: 3.13 mg/kg/injection, schedule: Q01DX005 (ip), vehicle: Klucel (hydroxypropylcellulose) (HPC)) was 118 % of control and the T/C (dose: 6.25 mg/kg/injection, schedule: Q01DX005 (ip), vehicle: Klucel (hydroxypropylcellulose) (HPC)) was 123 % of control.

For `CC1(C)N=C(N)N=C(N)N1c1ccc(CNC(=O)Nc2ccc(S(=O)(=O)F)cc2)cc1`, the T/C [11] was 172 % of control, the T/C [12] was 181 % of control and the T/C [13] was 90 % of control.

For `O=c1ccn2c(n1)OC1C(O)C(CO)OC12` (configuration not stated), the T/C (dose: 50.0 mg/kg/injection, schedule: Q04DX003 (ip), vehicle: saline) was 100 % of control, the T/C [11] was 103 % of control and the T/C [12] was 102 % of control. The T/C [13] was 91 % of control.

With `Nn1c(N/N=C\c2ccccc2)nnc1N/N=C/c1ccccc1` the T/C [1] was 113 % of control and the T/C [2] was 105 % of control.

For `C=CC(C(=O)O)S(=O)(=O)O` (configuration not stated), the T/C (dose: 20.0 mg/kg/injection, schedule: Q01DX009 (ip), vehicle: saline with Tween-80) was 112 % of control and the T/C (dose: 40.0 mg/kg/injection, schedule: Q01DX009 (ip), vehicle: saline with Tween-80) was 103 % of control.

With `CN1CC(=O)N=C1N` the T/C [6] was 100 % of control, the T/C [7] was 100 % of control and the T/C [8] was 105 % of control.

For `O=c1oc2ccccc2c(O)c1C=Nc1ccccc1`, the T/C (dose: 12.5 mg/kg/injection, schedule: Q01DX009 (ip), vehicle: saline with Tween-80) was 89 % of control and the T/C (dose: 25.0 mg/kg/injection, schedule: Q01DX009 (ip), vehicle: saline with Tween-80) was 88 % of control.

In the case of `CCN1C(SC)=NC(=O)C1(c1ccc(C)cc1)c1ccc(C)cc1`, the T/C [14] is reported as 100 % of control, the T/C [15] is reported as 106 % of control and the T/C (dose: 200.0 mg/kg/injection, schedule: Q01DX005 (ip), vehicle: Klucel (hydroxypropylcellulose) (HPC)) is reported as 98 % of control.

`CCOC(=O)C(C)(C)Oc1ccc(Cl)cc1` was tested, and the T/C [3] was 100 % of control, the T/C [4] was 93 % of control and the T/C [5] was 112 % of control.

`O=C1c2ccccc2C(=O)N1CCCN1CCOCCOCCN(CCCN2C(=O)c3ccccc3C2=O)CCOCC1` was tested, and the T/C (dose: 50.0 mg/kg/injection, schedule: Q01DX005 (ip), vehicle: saline + Tween-80 + alcohol) was 105 % of control and the T/C (dose: 100.0 mg/kg/injection, schedule: Q01DX005 (ip), vehicle: saline + Tween-80 + alcohol) was 97 % of control.

With `NC(=O)Nc1cc2[nH]c(=O)oc2cc1Cl` the T/C (dose: 12.5 mg/kg/injection, schedule: Q01DX005 (ip), vehicle: Klucel (hydroxypropylcellulose) (HPC)) was 100 % of control, the T/C (dose: 25.0 mg/kg/injection, schedule: Q01DX005 (ip), vehicle: Klucel (hydroxypropylcellulose) (HPC)) was 102 % of control and the T/C [14] was 88 % of control. For the same compound, the T/C [15] was 92 % of control.

With `Cc1cc[n+](C2=C(Nc3cc(C)cc(C)c3)C(=O)c3ccccc3C2=O)cc1` the T/C [16] was 111 % of control, the T/C [17] was 119 % of control and the T/C [18] was 90 % of control.

`Cc1nn(-c2ccccc2)c(SC(C)(C)C)c1C=NCCN=Cc1c(C)nn(-c2ccccc2)c1SC(C)(C)C` was tested, and the T/C (dose: 3.75 mg/kg/injection, schedule: Q01DX005 (ip), vehicle: Klucel (hydroxypropylcellulose) (HPC)) was 100 % of control, the T/C (dose: 7.5 mg/kg/injection, schedule: Q01DX005 (ip), vehicle: Klucel (hydroxypropylcellulose) (HPC)) was 98 % of control and the T/C (dose: 15.0 mg/kg/injection, schedule: Q01DX005 (ip), vehicle: Klucel (hydroxypropylcellulose) (HPC)) was 100 % of control.

`O=C(NC(Cc1c[nH]c2ccccc12)C(=O)O)OCC1c2ccccc2-c2ccccc21` (configuration not stated) was tested, and the T/C [14] was 100 % of control and the T/C [15] was 95 % of control.

For `CC(=O)Oc1ccc(C2c3cc(OC(C)=O)c(OC(C)=O)cc3CC3C(=O)OCC32)cc1OC(C)=O` (configuration not stated), the T/C (dose: 50.0 mg/kg/injection, schedule: Q01DX005 (ip), vehicle: distilled water + alcohol) was 102 % of control, the T/C (dose: 100.0 mg/kg/injection, schedule: Q01DX005 (ip), vehicle: distilled water + alcohol) was 96 % of control and the T/C (dose: 200.0 mg/kg/injection, schedule: Q01DX005 (ip), vehicle: distilled water + alcohol) was 100 % of control.

With `CC(C)(C)CC(C)(C)c1ccc(OCCOc2ccc(C(=O)O)cc2)cc1` the T/C (dose: 100.0 mg/kg/injection, schedule: Q01DX001 (ip), vehicle: saline sonified) was 105 % of control, the T/C (dose: 200.0 mg/kg/injection, schedule: Q01DX001 (ip), vehicle: saline sonified) was 110 % of control and the T/C (dose: 400.0 mg/kg/injection, schedule: Q01DX001 (ip), vehicle: saline sonified) was 110 % of control.

In the case of `CC(=O)/C=C/c1ccc(Cl)c(Cl)c1`, the T/C [3] is reported as 118 % of control, the T/C [4] is reported as 111 % of control and the T/C [5] is reported as 111 % of control.

In the case of `CSC(=S)n1nc(C)c(N=Nc2cccc(Cl)c2Cl)c1C`, the T/C [16] is reported as 88 % of control, the T/C [17] is reported as 88 % of control and the T/C [18] is reported as 89 % of control.

For `CCN1c2ccccc2S(=O)(=O)n2c(COc3ccccc3)nnc21`, the T/C (dose: 25.0 mg/kg/injection, schedule: Q01DX001 (ip), vehicle: saline with Tween-80) was 95 % of control, the T/C (dose: 50.0 mg/kg/injection, schedule: Q01DX001 (ip), vehicle: saline with Tween-80) was 95 % of control and the T/C (dose: 100.0 mg/kg/injection, schedule: Q01DX001 (ip), vehicle: saline with Tween-80) was 87 % of control.

For `C[n+]1c(C[n+]2ccccc2)ccc2ccccc21`, the T/C [9] was 105 % of control and the T/C [10] was 106 % of control.

For `COC(=O)C1=C/C=C\CN(/C=C/c2ccccc2)/C=C\1C(=O)OC`, the T/C (dose: 100.0 mg/kg/injection, schedule: Q04DX003 (ip), vehicle: alcohol) was 97 % of control, the T/C (dose: 200.0 mg/kg/injection, schedule: Q04DX003 (ip), vehicle: alcohol) was 112 % of control and the T/C (dose: 400.0 mg/kg/injection, schedule: Q04DX003 (ip), vehicle: alcohol) was 94 % of control.

For `OC1C2CCC1C(N1CCOCC1)CC2` (configuration not stated), the T/C (dose: 50.0 mg/kg/injection, schedule: Q01DX009 (ip), vehicle: saline sonified) was 100 % of control, the T/C (dose: 100.0 mg/kg/injection, schedule: Q01DX009 (ip), vehicle: saline sonified) was 100 % of control and the T/C (dose: 200.0 mg/kg/injection, schedule: Q01DX009 (ip), vehicle: saline sonified) was 105 % of control.
